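Assay format: 96-well plates, 48-hour exposure. Here, GI50 denotes the concentration required for 50% inhibition of growth. TGI is the concentration that stops growth completely.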
What was measured:
Assay in all cases: inhibition of tumour cell growth, NCI panel, 48 h
DU-145 prostate = tested on: DU-145 prostate
RXF 393 renal = tested on: RXF 393 renal
NCI-H226 lung = tested on: NCI-H226 lung
SK-MEL-2 melanoma = tested on: SK-MEL-2 melanoma
SW-620 colon = tested on: SW-620 colon
UACC-257 melanoma = tested on: UACC-257 melanoma
HT29 colon = tested on: HT29 colon
HCT-15 colon = tested on: HCT-15 colon
A498 renal = tested on: A498 renal
T-47D breast = tested on: T-47D breast
KM12 colon = tested on: KM12 colon
SK-MEL-5 melanoma = tested on: SK-MEL-5 melanoma
SF-539 CNS = tested on: SF-539 CNS
RPMI-8226 leukemia = tested on: RPMI-8226 leukemia
A549 NSCLC = tested on: A549 NSCLC
NCI-H522 lung = tested on: NCI-H522 lung
M14 melanoma = tested on: M14 melanoma
UACC-62 melanoma = tested on: UACC-62 melanoma
BT-549 breast = tested on: BT-549 breast
CCRF-CEM leukemia = tested on: CCRF-CEM leukemia
HS 578T breast = tested on: HS 578T breast
PC-3 prostate = tested on: PC-3 prostate
COLO 205 colon = tested on: COLO 205 colon
CAKI-1 renal = tested on: CAKI-1 renal
SF-268 CNS = tested on: SF-268 CNS
NCI/ADR-RES ovarian = tested on: NCI/ADR-RES ovarian
ACHN renal = tested on: ACHN renal
SK-MEL-28 melanoma = tested on: SK-MEL-28 melanoma

C=C1C(=O)O[C@H]2[C@H]1CC/C(CNC(=O)c1cccc3ccccc13)=C\CC[C@@]1(C)O[C@@H]21
TGI (DU-145 prostate): 2.47 µM | GI50 (RXF 393 renal): 1.18 µM | TGI (RXF 393 renal): 2.6 µM | GI50 (NCI-H226 lung): 29.1 µM | TGI (NCI-H226 lung): 77.6 µM | GI50 (SK-MEL-2 melanoma): 6.51 µM | TGI (SK-MEL-2 melanoma): 24.2 µM | GI50 (SW-620 colon): 1.12 µM | TGI (SW-620 colon): 3.04 µM | GI50 (UACC-257 melanoma): 1.59 µM | TGI (UACC-257 melanoma): 3.61 µM | GI50 (HT29 colon): 1.84 µM | TGI (HT29 colon): 4.75 µM | GI50 (HCT-15 colon): 1.31 µM | TGI (HCT-15 colon): 3.14 µM | GI50 (A498 renal): 5.93 µM | TGI (A498 renal): 19.2 µM | GI50 (T-47D breast): 2.55 µM | TGI (T-47D breast): 9.08 µM | GI50 (KM12 colon): 5.25 µM | TGI (KM12 colon): 21 µM | GI50 (SK-MEL-5 melanoma): 3 µM | TGI (SK-MEL-5 melanoma): 11.5 µM | GI50 (SF-539 CNS): 1.85 µM | TGI (SF-539 CNS): 5.11 µM | GI50 (RPMI-8226 leukemia): 2.02 µM | TGI (RPMI-8226 leukemia): 6.4 µM | GI50 (A549 NSCLC): 14.1 µM | TGI (A549 NSCLC): 35.3 µM | GI50 (NCI-H522 lung): 1.36 µM | TGI (NCI-H522 lung): 2.95 µM | GI50 (M14 melanoma): 1.57 µM | TGI (M14 melanoma): 3.76 µM | GI50 (UACC-62 melanoma): 1.64 µM | TGI (UACC-62 melanoma): 3.9 µM | GI50 (BT-549 breast): 1.58 µM | TGI (BT-549 breast): 3.87 µM | GI50 (CCRF-CEM leukemia): 0.424 µM | TGI (CCRF-CEM leukemia): 6.03 µM | GI50 (HS 578T breast): 6.22 µM | TGI (HS 578T breast): 44.4 µM | GI50 (PC-3 prostate): 1.79 µM | TGI (PC-3 prostate): 4 µM | GI50 (COLO 205 colon): 1.75 µM | TGI (COLO 205 colon): 3.53 µM | GI50 (CAKI-1 renal): 1.19 µM | TGI (CAKI-1 renal): 4.74 µM | GI50 (SF-268 CNS): 5.22 µM | TGI (SF-268 CNS): 20 µM | GI50 (NCI/ADR-RES ovarian): 4.52 µM | TGI (NCI/ADR-RES ovarian): 46.9 µM | GI50 (ACHN renal): 1.52 µM | TGI (ACHN renal): 6.3 µM | GI50 (SK-MEL-28 melanoma): 2.78 µM | TGI (SK-MEL-28 melanoma): 10.7 µM

From PubChem BioAssay (NCI)
